In brackets after ≈: the same amount, converted by molar mass. Where two headings read alike, the source gives them in different places.
Tests used:
S. aureus NRS70 MRSA = assay: MIC, S. aureus NRS70; assay type: cell-based; conditions: Staphylococcus aureus; Table 2
[1] = system: Legionella pneumophila ATCC 33152; assay: microbe, parasite or virus in culture; assay type: cell-based; conditions: ATCC33152, 48 h, read-out: MIC Legionella pneumophila ATCC 33152
[2] = system: Neisseria meningitidis ATCC 13090; assay: MIC, N. meningitidis ATCC 13090; assay type: cell-based; conditions: ATCC13090, Table 4, 24 h incubation
[3] = system: S. aureus NRS384 (MRSA - fluoroquinolone susceptible); assay: MIC, S. aureus NRS384; assay type: cell-based; conditions: Staphylococcus aureus, read-out: MIC S. aureus NRS384
[4] = system: S. aureus SACPX1-SP25 MSSA - FQ resistant; assay: microbe, parasite or virus in culture; assay type: cell-based; conditions: Staphylococcus aureus, ATCC 29213 / MSSA, read-out: MIC S. aureus SACPX1-SP25 MSSA - FQ resistant (isogenic mutant of ATCC 29213)
S. aureus VRS8 = assay: MIC, S. aureus VRS8; assay type: cell-based; conditions: Staphylococcus aureus, MRSA, read-out: MIC S. aureus VRS8
S. aureus NRS1 MRSA = assay: MIC, S. aureus NRS1; assay type: cell-based; conditions: Staphylococcus aureus; Table 2; read-out: MIC S. aureus NRS1 MRSA AMG & TET resistant
[5] = system: Haemophilus influenzae ATCC 49247; assay: MIC, H. influenzae ATCC 49247; assay type: cell-based; conditions: ATCC49247, Table 4
[6] = system: S. aureus VRS1 MRSA VAN resistant; assay: MIC, S. aureus VRS1; assay type: cell-based; conditions: Staphylococcus aureus, Table 2
[7] = system: S. aureus (MRSA) ATCC 43300; assay: MIC, S. aureus ATCC 43300; assay type: cell-based; conditions: Staphylococcus aureus; Table 2; read-out: MIC S. aureus (MRSA) ATCC 43300 Heterogeneous MRSA strain
[8] = system: Mycobacterium smegmatis ATCC 19420; assay: MIC, M. smegmatis ATCC 19420; assay type: cell-based; conditions: Mycolicibacterium smegmatis, ATCC19420; Table 4, 72 h incubation
[9] = system: Staphylococcus aureus ATCC 29213; assay: MIC, broth microdilution, S. aureus ATCC 29213; assay type: cell-based
[10] = system: Enterococcus faecium ATCC 19434; assay: MIC, E. faecium ATCC 19434; assay type: cell-based; conditions: ATCC19434, Table 2
S. aureus NRS74 = assay: MIC, S. aureus NRS74; assay type: cell-based; conditions: Staphylococcus aureus, MRSA / NRS 74, read-out: MIC S. aureus NRS74
S. aureus NRS271 = assay: MIC, S. aureus NRS271; assay type: cell-based; conditions: Staphylococcus aureus, MRSA / NRS 271, read-out: MIC S. aureus NRS271
[11] = system: S. aureus NRS482 MRSA FQ resistant; assay: MIC, S. aureus NRS482; assay type: cell-based; conditions: Staphylococcus aureus; Table 2
[12] = system: human hepatic cell line (HepG2 ATCC HB-8065); assay: Human cell viability assay (CellTiter-Glo), HepG2; assay type: cell-based; conditions: read-out: IC50 values against HepG2
Summary of the method: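 HepG2 seeded at 20,000 cells/well, then after 24 h given two-fold serial dilutions (1-128 μg/mL, 1% DMSO) in DMEM with 0.001% FBS and 0.3% albumin. After 24 h at 37 °C, ATP luminescence (CellTiter-Glo) read; IC50 is the concentration halving viability.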

[13] = system: S. aureus SACPX1-SP28 (MSSA - fluoroquinolone resistant); assay: MIC, S. aureus SACPX1-SP28; assay type: cell-based; conditions: Staphylococcus aureus, read-out: MIC S. aureus SACPX1-SP28
[14] = system: S. epidermidis NRS101 MRSE; assay: MIC, S. epidermidis NRS101; assay type: cell-based; conditions: Staphylococcus epidermidis; Table 2; read-out: MIC S. epidermidis NRS101 MRSE AMG, ERY resistant
[15] = system: Escherichia coli ATCC 25922; assay: MIC, broth microdilution, E. coli ATCC 25922; assay type: cell-based; conditions: ATCC25922, Table 1, wild type strain
[16] = system: Neisseria gonorrhoeae ATCC 49226; assay: MIC, N. gonorrhoeae ATCC 49226; assay type: cell-based; conditions: ATCC49226, Table 4, 24 h incubation
[17] = system: S. aureus NRS127 MRSA LZD resistant; assay: MIC, S. aureus NRS127; assay type: cell-based; conditions: Staphylococcus aureus; Table 2
[18] = system: S. aureus NRS106 (fluoroquinolone susceptible MSSA); assay: MIC, S. aureus NRS106; assay type: cell-based; conditions: Staphylococcus aureus
[19] = system: all strains of S. aureus tested; assay: Antibacterial susceptibility, all S. aureus strains tested; assay type: cell-based, Staphylococcus aureus; conditions: including strains resistant to fluoroquinolone and other antibiotics
S. aureus NRS100 MRSA = assay: MIC, S. aureus NRS100; assay type: cell-based; conditions: Staphylococcus aureus; Table 2
[20] = system: Mycobacterium tuberculosis H37Rv; assay: MIC, M. tuberculosis H37Rv; assay type: cell-based; conditions: virulent tuberculosis-causative strain
[21] = system: Streptococcus pneumoniae ATCC BAA-255; assay: MIC, S. pneumoniae ATCC BAA-255; assay type: cell-based; conditions: ATCCBAA255, Table 2
[22] = system: Moraxella catarrhalis ATCC 25240; assay: MIC, M. catarrhalis ATCC 25240; assay type: cell-based; conditions: ATCC25240, Table 4
[23] = system: S. aureus NRS107 MUP resistant; assay: MIC, S. aureus NRS107; assay type: cell-based; conditions: Staphylococcus aureus, Table 2
S. aureus NRS108 = assay: MIC, S. aureus NRS108; assay type: cell-based; conditions: Staphylococcus aureus, MRSA / NRS 108, read-out: MIC S. aureus NRS108
[24] = ATCC29213, Table 1, wild type strain, read-out: MIC S. aureus ATCC 29213
[25] = ATCC 29213 / MSSA, Table 2, read-out: MIC S. aureus (MSSA) ATCC 29213 CLSI control strain
[26] = HepG2, 24 h incubation, tested over 1-128 μg/mL

Compound	MIC (S. aureus NRS70 MRSA)	MIC [1]	MIC [2]	MIC (S. aureus NRS1 MRSA)	MIC [5]	MIC [6]	MIC [7]	MIC [9, 24]	MIC [9, 25]	MIC [10]	MIC [11]	IC50 [12, 26]	MIC [14]	MIC [15]	MIC [16]	MIC [17]	MIC (S. aureus NRS100 MRSA)	MIC [21]	MIC [23]	MIC [4]	other results
Cc1c(-c2cc(F)c(N)cc2F)ccc2c3ocnc3c(=O)n(C3CC3)c12 [Compound 1, 7-(4-amino-2,5-difluoro-phenyl)-5-cyclopropyl-6-methyl-oxazolo[4,5-c]quinolin-4-one]	< 1 µg/mL	< 1 µg/mL	< 1 µg/mL	< 1 µg/mL	< 1 µg/mL	< 1 µg/mL	< 1 µg/mL	< 1 µg/mL	< 1 µg/mL	> 100 µg/mL	< 1 µg/mL	> 100 µg/mL	< 1 µg/mL	> 100 µg/mL	< 1 µg/mL	< 1 µg/mL	< 1 µg/mL	1 to 10 µg/mL (≈ 2.72 to 27.2 µM)	< 1 µg/mL		MIC [3]: < 1 µg/mL; MIC ([4]; Table 2): < 1 µg/mL; MIC (S. aureus VRS8): < 1 µg/mL; MIC [8]: < 1 µg/mL; MIC (S. aureus NRS74): < 1 µg/mL; MIC (S. aureus NRS271): < 1 µg/mL; MIC [13]: < 1 µg/mL; MIC [18]: < 1 µg/mL; activity against all strains of S. aureus tested [19]: excellent activity; MIC [20]: < 8 µg/mL; MIC [22]: < 1 µg/mL; MIC (S. aureus NRS108): < 1 µg/mL
Cc1nc2c(=O)n(C3CC3)c3c(C)c(-c4ccc(CN)c(F)c4)ccc3c2o1 [Compound 36, 7-[4-(aminomethyl)-3-fluoro-phenyl]-5-cyclopropyl-2,6-dimethyl-oxazolo[4,5-c]quinolin-4-one]	< 1 µg/mL	< 1 µg/mL	< 1 µg/mL	> 100 µg/mL	1 to 10 µg/mL (≈ 2.65 to 26.5 µM)	10 to 100 µg/mL (≈ 26.5 to 265 µM)	< 1 µg/mL	< 1 µg/mL	< 1 µg/mL	10 to 100 µg/mL (≈ 26.5 to 265 µM)	1 to 10 µg/mL (≈ 2.65 to 26.5 µM)	> 100 µg/mL	10 to 100 µg/mL (≈ 26.5 to 265 µM)	1 to 10 µg/mL (≈ 2.65 to 26.5 µM)	10 to 100 µg/mL (≈ 26.5 to 265 µM)	1 to 10 µg/mL (≈ 2.65 to 26.5 µM)	1 to 10 µg/mL (≈ 2.65 to 26.5 µM)	1 to 10 µg/mL (≈ 2.65 to 26.5 µM)	1 to 10 µg/mL (≈ 2.65 to 26.5 µM)	1 to 10 µg/mL (≈ 2.65 to 26.5 µM)	MIC [22]: 1 to 10 µg/mL (≈ 2.65 to 26.5 µM)
Cc1c(-c2ccc3[nH]ncc3c2)ccc2c3ocnc3c(=O)n(C3CC3)c12 [Compound 39, 5-cyclopropyl-7-(1H-indazol-5-yl)-6-methyl-oxazolo[4,5-c]quinolin-4-one]	< 1 µg/mL		< 1 µg/mL	< 1 µg/mL	< 1 µg/mL	< 1 µg/mL	< 1 µg/mL	< 1 µg/mL	< 1 µg/mL	10 to 100 µg/mL (≈ 28.1 to 281 µM)	< 1 µg/mL	10 to 100 µg/mL (≈ 28.1 to 281 µM)	< 1 µg/mL	1 to 10 µg/mL (≈ 2.81 to 28.1 µM)	< 1 µg/mL	< 1 µg/mL	< 1 µg/mL	< 1 µg/mL	< 1 µg/mL	< 1 µg/mL	MIC [8]: 1 to 10 µg/mL (≈ 2.81 to 28.1 µM)
C[C@H]1COc2c(N3CCN(C)CC3)c(F)cc3c(=O)c(C(=O)O)cn1c23 [Levofloxacin, reference compound]	< 1 µg/mL	< 1 µg/mL	< 1 µg/mL	10 to 100 µg/mL (≈ 27.7 to 277 µM)	< 1 µg/mL	10 to 100 µg/mL (≈ 27.7 to 277 µM)	< 1 µg/mL		< 1 µg/mL	1 to 10 µg/mL (≈ 2.77 to 27.7 µM)	1 to 10 µg/mL (≈ 2.77 to 27.7 µM)	> 100 µg/mL	< 1 µg/mL		< 1 µg/mL	> 100 µg/mL	< 1 µg/mL	< 1 µg/mL	< 1 µg/mL	1 to 10 µg/mL (≈ 2.77 to 27.7 µM)	MIC [22]: < 1 µg/mL
Cc1onc(-c2ccccc2)c1C(=O)N[C@@H]1C(=O)N2[C@@H]1SC(C)(C)[C@@H]2C(=O)O [Oxacillin, reference compound]	10 to 100 µg/mL (≈ 24.9 to 249 µM)			> 100 µg/mL	> 100 µg/mL	< 1 µg/mL	< 1 µg/mL		< 1 µg/mL	10 to 100 µg/mL (≈ 24.9 to 249 µM)		10 to 100 µg/mL (≈ 24.9 to 249 µM)	1 to 10 µg/mL (≈ 2.49 to 24.9 µM)			< 1 µg/mL	> 100 µg/mL		< 1 µg/mL	1 to 10 µg/mL (≈ 2.49 to 24.9 µM)	
CN[C@H](CC(C)C)C(=O)N[C@H]1C(=O)N[C@@H](CC(N)=O)C(=O)N[C@H]2C(=O)N[C@H]3C(=O)N[C@H](C(=O)N[C@H](C(=O)O)c4cc(O)cc(O)c4-c4cc3ccc4O)[C@H](O)c3ccc(c(Cl)c3)Oc3cc2cc(c3O[C@@H]2O[C@H](CO)[C@@H](O)[C@H](O)[C@H]2O[C@H]2C[C@](C)(N)[C@H](O)[C@H](C)O2)Oc2ccc(cc2Cl)[C@H]1O [Vancomycin, reference compound]	< 1 µg/mL			1 to 10 µg/mL (≈ 0.69 to 6.9 µM)	10 to 100 µg/mL (≈ 6.9 to 69 µM)	1 to 10 µg/mL (≈ 0.69 to 6.9 µM)	1 to 10 µg/mL (≈ 0.69 to 6.9 µM)		< 1 µg/mL	< 1 µg/mL	1 to 10 µg/mL (≈ 0.69 to 6.9 µM)		1 to 10 µg/mL (≈ 0.69 to 6.9 µM)			1 to 10 µg/mL (≈ 0.69 to 6.9 µM)	1 to 10 µg/mL (≈ 0.69 to 6.9 µM)	< 1 µg/mL	1 to 10 µg/mL (≈ 0.69 to 6.9 µM)		MIC ([4]; Table 2): < 1 µg/mL; IC50 ([12]; HepG2, 24 h): 10 to 100 µg/mL (≈ 6.9 to 69 µM)

Reference: patent US10385065B2, “Antibacterial compounds” (priority 2014, dated 2019)
